Patent publication US9180107B2 (NANOPHARMACEUTICALS LLC, priority 2009, dated 2015)
Like-named read-outs stand apart in the source and are kept apart here. Marks after values point to notes of the source that are not given here.

How the values were obtained:
[1] = tested on: TGS112T cells; assay: Cell proliferation by cell counting; format: cell-based, human; details: treated daily with 10^−6 M
Experimental: FIG. 6 is a series of graphs showing the effects of tetrac and nano-tetrac in human adenoid cystic carcinoma (TGS112T). In FIG. 6A, TGS112T cancer cells were treated with 10^−7M T4 in the presence or absence of 10^−7M tetrac for 24 h. T4-induced PCNA expression was inhibited by tetrac. In FIG. 6B, TGS112T cancer cells were treated with 10^−7 M T4 in the presence or absence of 10^−7 M tetrac or nano-tetrac, daily and 1 μCi [^3H]-thymidine (final concentration, 13 nM) was added for 24 h. […] In FIG. 6C, TGS112T cells were treated daily with 10^−6 M tetrac or nano-tetrac. Cells were harvested at the time points as indicated. Total cell numbers taken after each treatment were used as indicator for tetrac- or nano-tetrac-induced anti-proliferation.
Human adenoid cystic carcinoma TGS112T cells were cultured in medium that contained 0.25% hormone-stripped serum for 2 d and then treated with 10^−7 M tetrac or nano-tetrac for 30 min prior institution of 10^−7 M T4 treatment for 24 h. Nuclear proteins were separated by SDS-PAGE followed by western blot analysis with proliferating-cell nuclear antigen (PCNA) antibody. Thyroid hormone-induced PCNA accumulation was inhibited by tetrac. (See FIG. 6A). […] (See FIG. 6A). Inhibition of thyroid hormone-induced proliferation was confirmed by inhibition by tetrac and nano-tetrac of thyroid hormone-induced accumulation and [^3H]-thymidine incorporation. […]

[2] = tested on: human breast cancer MDA-MB-231 cells (MDA-MB); assay: Anti-proliferation (total cell counts) in bellows cell culture system with pharmacodynamic modeling; format: cell-based; details: for IC50 / Imaxk (maximum effect on rate of growth) / ImaxR (maximum effect on success of replication): MDA-MB 231
Experimental: Each cell culture system is a compressible (bellows) 500 mL bottle which contains cell culture medium and specially-treated polymer flakes to which cells spontaneously attach and grow. Through moving bellows and porous membranes, the level of the medium in the bottle changes periodically. Consequently, the cells are alternately submerged in the culture medium, then exposed to 5% CO2/95% air which creates a dynamic interface between air and medium on the cell surface that maximizes nutrient uptake and oxygen transfer. The system provides a low shear, high aeration and foam-free culture environment. Proprietary treatment of the surfaces of the flakes enables seating and harvesting of cells and secreted proteins are readily isolated from the perfusate.
In a non-perfusion bellows cell culture system that was also used, the medium in each bottle was replaced by fresh medium every 24 h. In the perfusion bellows cell culture system, medium was progressively refreshed over 24 h, i.e., one complete change of medium occurred over 24 h.
In establishing the system, 5×10^7 cells were seeded in perfusion and non-perfusion bellows bottles and incubated overnight at 37° C. After that, flakes were harvested, trypsinized and cells were collected. Cell numbers were counted. […] For experiments, the perfusion bellows cell culture system was run for 2 d prior to starting experiments. […] Cell cultures were then exposed to 1% FBS-containing medium. Tetrac or nano-tetrac was added to the medium in the reservoir bottle to achieve the final concentrations reported for each experiment.
The time course of cell counts of the various cancer lines treated with different concentrations of tetrac or nano-tetrac was modeled by utilizing the pooled approach in NONMEM VI (version 6.2). All time points and treatment arms within each experiment were modeled simultaneously. A mechanism-based model (see Bulitta et al., 2009. Antimicrob. Agents Chemother. 53:46-56) was adapted to describe the proliferation of cancer cells and the inhibition of proliferation by tetrac. This model assumes two populations of cells in different phases of the cell cycle: cells that are preparing for replication (phase 1) and cells that are immediately “pre-replication” (phase 2). Cells transition from phase 1 to phase 2 by a first-order growth rate constant, while replication from phase 2 to phase 1 is assumed to be fast (see FIG. 2).
[formula] [formula] [formula] where C1 is the number of cells in phase 1, C2 the number of cells in phase 2, k21 the first order rate constant for replication (transition from phase 2 to phase 1), and k12 the first-order growth rate constant for transition from phase 1 to phase 2. The total number of cells Ct is the sum of C1 and C2. Rep is the replication efficiency factor which is described by:
[formula] where Cmax is the maximum number of cells. Without tetrac, the replication efficiency factor approaches 2, which reflects a 100% probability of successful replication. InhR describes the inhibitory effect of tetrac on the probability of successful replication:
[formula] Where ImaxR is the maximum effect of tetrac on probability of successful replication and IC50R is the tetrac concentration needed to achieve a half-maximal effect. Inhk describes the inhibitory effect of tetrac on the rate of growth:
[formula] Where Imaxk is the maximum effect of tetrac on rate of growth and IC50k is the tetrac concentration needed to achieve a half-maximal effect. Results

[3] = tested on: human embryonic kidney 293T cells; assay: Proliferation of non-malignant cells; format: cell-based; details: 10^−6M daily for 7 days
Experimental: FIG. 9 is a series of graphs showing the comparison of nano-tetrac and tetrac on cell proliferation in non-malignant cells. CV-1 cells (FIG. 9A) and 293 T cells (FIG. 9B) were treated daily with 10^−6 M tetrac or nano-tetrac. Cells were harvested at the time points indicated. Total cell numbers taken after each treatment were used as an indicator for tetrac- or nano-tetrac-induced anti-proliferation.
In order to confirm that tetrac and nano-tetrac only suppress cell proliferation in cancer cells, tetrac and nano-tetrac were also examined for potential anti-proliferative effects on immortalized non-malignant cells, using monkey kidney epithelial CV-1 cells and human embryonic kidney 293T cells. The cells were treated daily with either 10^−6M tetrac or 10^−6M nano-tetrac for 7 days, then were harvested, counted and examined microscopically.

[4] = study 2, rich data from one single study over 19 days

IC50 ([2]; Homo sapiens, 456 h, study 2, rich data from one single study over 19 days, read-out: IC50R (effect on success of replication)): 87 nM | IC50 ([2]; Homo sapiens, 456 h, study 2, rich data from one single study over 19 days, read-out: IC50k (effect on rate of growth)): 5100 nM | IC50 ([2]; Homo sapiens, study 1, sparse sampling, data pooled from two studies, read-out: IC50R (effect on success of replication)): 4400 nM | IC50 ([2]; Homo sapiens, study 1, sparse sampling, data pooled from two studies, read-out: IC50k (effect on rate of growth)): 7.6 nM
Structure (SMILES): O=C(O)Cc1cc(I)c(Oc2cc(I)c(O)c(I)c2)c(I)c1 [tetrac, Tetraiodothyroacetic acid]
cell count after 7 d [1]: 3.65×10^8 cells | inhibition at 0.1 µM ([2]; Homo sapiens, MDA-MB-231, 192 h, read-out: inhibitory effect on cell growth): 38% | Imaxk (maximum effect on rate of growth) ([2]; study 1, sparse sampling, data pooled from two studies): 0.19 | ImaxR (maximum effect on success of replication) ([2]; study 1, Imax at time = 0, decreases with time): 0.53^a | ImaxR (maximum effect on success of replication) [2, 4]: 0.20 | Imaxk (maximum effect on rate of growth) [2, 4]: 0.85 | change in cell numbers and morphology vs untreated control [3]: no significant change
